Experimental data as given in the NIST ThermoML archive (doi:10.1016/j.jct.2009.07.010).
Numbers after ± are expanded uncertainties.

Conditions: 298.15 K; 101.33 kPa; Liquid; Vibrating tube method

- mass density: 1387.07 ± 2.2 kg/m3
SMILES: CCn1cc[n+](C)c1.O=S(=O)([O-])C(F)(F)F [1-ethyl-3-methylimidazolium trifluoromethanesulfonate]
